Data reported in patent publication US8354498B2, “CD4 mimic peptides and their uses” (Commissariat a l'Energie Atomique, priority 2006, dated 2013).
Like-named read-outs stand apart in the source and are kept apart here.

Key:
[1] = system: gp120 isolates SF2, SF162, Bal, IIIB, YU2; assay: Direct binding by fluorescence anisotropy, comparison over all isolates; parameters: species or system HIV-1; settings: depending on gp120 isolates
Procedure: Direct binding assays of fluorescent peptides were performed in triplicates by adding 10 μL of 0.5 nM Alexa-labeled mini-proteins and 10 μL of serial dilutions (two-thirds dilutions in 16 wells, starting at 200 nM) of gp120 SF2, SF162, BaL, IIIB and YU2. Collected data were fitted to the following equation using a non-linear regression program (Prism, GraphPad software Inc.):
The biphenylalanine in position 23 led to a 3 fold gain, consistent with the previously observed difference between CD4M33 and its [Phe^23]M33 mutant (Huang et al., Structure, 2005, 13, 755-768).

[2] = system: gp120 (SF162, YU2, SF2, LAI, HXB2) binding to CD4i antibody 48d; assay: SPR analysis of binding of gp120 complexes to immobilized CD4i Ab 48d; parameters: species or system HIV-1; settings: 50 nM gp120 premixed with 3 eq.
Procedure: 120 μL of 50 nM gp120 preincubated with 3 eq. […] (A) gp120SF162, (B) gp120LAI. (C) gp120YU2.
The different gp120 (SF162, YU2, LAI, HXB2, SF2) were premixed at a final concentration of 50 nM with 3 eq. CD4M48, 3 eq. CD4M48 in presence of 3 eq. LMW heparin or 3 eq. covalent CD4M48−heparin for 60 min before injection at 20 μL/min. All sensorgrams were corrected by substracting the signal from reference flow cell.

[3] = system: gp120
Procedure: Fluorescence anisotropy was determined after 40 min equilibration time at room temperature, using 485 nm excitation and 530 nm emission filters and an additional 505 nm dichroic filter. All experiments were performed in duplicate.
Fluorescence anisotropy measurements were based on the assessment of the rotational motions of species. Whereas the CD4-mimic tumbles very fast in solution randomizing excited molecules, once it binds to gp120 envelopes, the excited mini-protein stays aligned during the process of emission and as a result, emitted light is polarized.

[4] = biological target: T1, gp120SF162 binding to CCR5+-CHO cells (Human immunodeficiency virus type 1 group M subtype B, UniProt P19550); assay: FACS analysis of gp120 binding to CCR5+-CHO cells in presence of CD4 mimics; format: cell-based, HIV-1; settings: gp120SF162 pre-incubated with mini-protein
T1 construct: R5-tropic SF162 and Dual-tropic SF2 recombinant gp120s were produced in mammalian cells (CHO); made in house; host or cells: gp120: CHO; CCR5: transfected CHO-K1 cells
Text: FIG. 7 illustrates the FACS analysis of the binding of recombinant envelope gp120 to CCR5^+-CHO cells in absence or in presence of various CD4-mimics, in comparison with soluble CD4.
FIG. 13 illustrates the FACS analysis of the binding of recombinant envelope gp120 to CCR5^+-CHO cells in absence or in presence of various CD4-mimics in comparison with soluble CD4.
FIG. 19 illustrates the FACS analysis of the binding of gp120SF162 to CCR5^+ CHO cells in absence or in presence of CD4M48 monomer or hetero-bivalent CD4M48−heparin. The ability of gp120 in complex with CD4M48 alone, CD4M48 covalently bound to heparin (noted M48−heparin), CD4M48 in presence of free LMW heparin (1:1) (noted M48+heparin) to bind to cellular co-receptor CCR5 was investigated.
Adherent CHO-K1 cells expressing CCR5 (Samson et al., Biochemistry, 1996, 35, 3362-3367; Blanpain et al., Blood, 2000, 96, 1638-1645) were used to analyze gp120SF162 conformational change in complex with different mini-proteins, by FACS (BECKTON DICKINSON). Briefly, 0.03 μg of gp120SF162 were pre-incubated overnight at 4° C. in absence or in presence of 10 nM CD4 or 10 nM mini-proteins and further added to 2×10^5 cells in HAM F12 supplemented with 10% SVF, 1% penicillin/streptomycin. […] After final wash, cells were analyzed for envelope binding by FACS.

[5] = system: HIV-1 NL4.3 (X4); format: cell-based
Procedure: The antiviral activity of the molecules in MT-4 cells was determined using a tetrazolium-based colorimetric assay (Hase et al., Biochem. Pharmacol., 2005, 70, 752-761). Briefly, five-fold dilutions of the test compounds in 100 μL of medium were added to duplicate wells of 96-well flat bottom plates (IWAKI). Then 6×10^4 MT-4 cells were added in 50 μL of medium, and finally 50 μL of diluted HIV-1 stocks was added to each well. Cytopathic effect induced by the virus was monitored by daily microscopic evaluation of the virus-infected cell cultures. At day 4-5 after infection, the cell viability was assessed via the in situ reduction of the tetrazolium compound MTS, using the CellTiter 96® AQueous one solution cell proliferation assay (PROMEGA). The absorbance was then measured at 490 nm with a 96-well plate reader and compared with four cell control replicates (cells without virus and drugs) and four virus control wells (virus-infected cells without drugs). The IC50 was calculated for each compound from the dose-response curve.
(§1) The experimental procedures are as described in example 1.

[6] = system: HIV-1 NL4.3(X4); format: cell-based
Procedure: The acute infection assays in primary cells were performed as described by Schols and coworkers (Balzarini et al., J. Biol. Chem., 2005, 280, 41005-41014). Briefly, PBMC from healthy donors were isolated by density gradient centrifugation and stimulated by phytohemagglutinin (PHA; SIGMA) in RPMI 1640 medium supplemented with 10% foetal calf serum (FCS; BIOCHROM). PBMC were infected by exposing cells (0.5×10^6/well; 48-well plate) to the viral stocks added at a final dose of 250 pg of p24/mL in the presence or the absence of the inhibitors. Cell supernatant was collected at day 12, and HIV-1 core Ag in the culture supernatant was analysed by a p24 Ag enzyme-linked immunosorbent assay kit (PERKIN ELMER).
as §1

[7] = system: HIV-1 BaL(R5); assay: Acute infection assay in PM1 cells; format: cell-based; settings: day 5, read-out: Antiviral activity IC50
Procedure: (§2) For the acute infection assay in PM1 cell line (Lusso et al., J. virol., 1995, 69, 3712-3720), an immortalized CD4^+CCR5^+CXCR4^+ T-cell clone susceptible of a wide variety of HIV-1 strains, the cells were seeded at 2.5×10^4 cells/well into flat-bottom 96-well plates in 200 μL of complete RPMI medium. Cells were then exposed to the viral stocks (˜50 TCID50/well) pre-treated or not with serial dilutions of inhibitors for 30 min. After overnight incubation at 37° C., the cells were washed twice and recultured in complete RPMI medium supplemented with the appropriate inhibitors. After 3, 5 or 7 days, the culture supernatant was removed […] p24 antigen testing and replaced with fresh medium containing the appropriate inhibitors. The extracellular p24 concentrations were measured by capture ELISA, using a sandwich of specific antibodies (AALTO BIO REAGENTS).
as §1

[8] = system: HIV-1 714(R5); assay: Acute infection assay in PM1 cells; format: cell-based; settings: day 5, read-out: Antiviral activity IC50
Procedure: as §2, §1

[9] = system: HIV-1 6393(R5); assay: Acute infection assay in PM1 cells; format: cell-based; settings: day 5, read-out: Antiviral activity IC50
Procedure: as §2, §1

[10] = biological target: gp120SF162 (Human immunodeficiency virus type 1 group M subtype B, UniProt P19550); settings: injected at 125 nM; curves normalized to CD4M48
Procedure: 100 μL of monomer, dimers and tetramers were passed over the surface at 20 μL/min after which dissociation of bound inhibitors was monitored for 15 min.
All experiments were conducted at 25° C. with 20 μL/min flow rate in HBS (50 mM HEPES-buffered saline, 3 mM EDTA, 0.05% Biacore surfactant P20, pH 7.4) with a BIACORE 3000 instrument (BIACORE AB).
For binding of multimers to gp120, gp120SF162 was immobilized on a CM5 sensor chip at 9000 RU by the amine coupling kit provided by the manufacturer.

[11] = MT-4 cells, NL4.3 (X4), day 5, read-out: Antiviral activity IC50

Substance | Improvement of affinity (Kd) compared to CD4M33 [1] | IC50 [5, 11] [nM] | IC50 [7] [nM] | IC50 [8] [nM] | IC50 [9] [nM] | also measured
CD4M47-F1: CD4M47 labeled with Alexa-488 probe at Lys11 | 5.2- to 12.3 fold |  |  |  |  | 
CD4M48-F1: CD4M48 labeled with Alexa-488 probe at Lys11 (XNLHFCQLRCKSLGLLGRCAXTFCACV; not fully specified; D-residues) | 1.1 to 6.1 fold |  |  |  |  | 
CD4M48-hep: hetero-bivalent inhibitor: CD4M48-hydrazino (Lys-11) covalently ligated to heparin mono-aldehyde (XNLHFCQLRCKSLGLLGRCAXTFCACV; not fully specified; D-residues) |  |  |  |  |  | Recognition of the gp120 complex by CD4i Ab 48d [2]: inhibit completely the recognition of the complex by CD4i-Ab 48d; Inhibition of CD4M33-F1 binding to gp120 (competitive polarization) [3]: nanomolar range; Binding of gp120 to CCR5+-CHO cells induced by the mimic (conformational change of gp120) [4]: prevents the binding of the complex to CCR5+ cells
CD4M48T50: CD4M48 tetramer on polylysine construct with 50 Å PEGylated linkers |  | 31 | 310 | 680 | 350 | IC50 ([6]; PBMC, day 12, read-out: Antiviral activity IC50): < 26 nM
CD4M48T100: CD4M48 tetramer on polylysine construct with 100 Å PEGylated linkers (XNLHFCQLRCKSLGLLGRCAXTFCACV; not fully specified; D-residues) |  | 22 | 45 | 360 | 55 | Dissociation from immobilized gp120 (off-rate) compared to monomer CD4M48 [10]: slowed-down dissociation phase
Enfuvirtide |  |  |  |  |  | IC50 ([5]; NL4.3(X4)): 11 nM; IC50 [6]: 13 nM
